# Measured values as given in ChEMBL document CHEMBL5331081, “Discovery of cysteine-targeting covalent histone methyltransferase inhibitors” (Eur J Med Chem, 2023).
# Key:
# [1] = Reduction in H3K9me2 level in human MDA-MB-231 cells incubated for 48 hrs by ChIP assay; type: functional, cell-based; conditions: MDA-MB-231, 48 h
# [2] = in vivo; conditions: CD-1, mouse, po, 100 mg/kg
# [3] = test system: MCF7; test: Anticancer activity against human MCF7 cells assessed as cell growth inhibition measured after 48 hrs by CCK-8 assay; type: functional
# [4] = test system: MDA-MB-231; test: Anticancer activity against human MDA-MB-231 cells assessed as cell growth inhibition measured after 48 hrs by CCK-8 assay; type: functional
# [5] = test system: A549; test: Anticancer activity against human A549 cells assessed as cell growth inhibition measured after 48 hrs by CCK-8 assay; type: functional
# [6] = test system: NCI-H1299; test: Anticancer activity against human NCI-H1299 cells assessed as cell growth inhibition measured after 48 hrs by CCK-8 assay; type: functional
# [7] = test system: SKM-1; test: Anticancer activity against human SKM-1 cells assessed as cell growth inhibition measured after 7 days by WST-8 assay; type: functional; conditions: SKM-1, 168 h, time 7 day
# [8] = test system: HL-60; test: Anticancer activity against human HL-60 cells assessed as cell growth inhibition measured after 7 days by WST-8 assay; type: functional; conditions: HL-60, 168 h, time 7 day
# [9] = test system: K562; test: Anticancer activity against human K562 cells assessed as cell growth inhibition measured after 7 days by WST-8 assay; type: functional; conditions: K562, 168 h, time 7 day
# [10] = biological target: Menin/Histone-lysine N-methyltransferase MLL (Homo sapiens, UniProt O00255+Q03164); test: Inhibition of menin (unknown origin)/MLL (unknown origin) protein-protein interaction by fluorescence polarization assay
# [11] = Anticancer activity against human MOLM16 cells assessed as cell growth inhibition measured after 7 days by WST-8 assay; type: functional, MOLM-16; conditions: MOLM16, 168 h, time 7 day
# [12] = test system: MV4-11; test: Anticancer activity against human MV4-11 cells harboring MLL-AF4 fusion protein assessed as cell growth inhibition measured after 7 days by WST-8 assay; type: functional; conditions: MV4-11, 168 h, pooled result: one value given for 6 cell lines, strains, targets or settings, time 7 day
# [13] = test system: PBMC; test: Anticancer activity against mouse PBMC cells harboring NUP98-NSD1 fusion protein assessed as cell growth inhibition measured after 7 days by MTT assay; type: functional; conditions: 168 h, time 7 day
# [14] = test system: PBMC; test: Anticancer activity against mouse PBMC cells harboring NUP98-NSD1 fusion protein assessed as cell growth inhibition measured after 3 days by MTT assay; type: functional; conditions: 72 h, time 3 day
# [15] = test system: HL-60; test: Anticancer activity against human HL-60 cells assessed as cell growth inhibition; type: functional
# [16] = test system: MV4-11; test: Anticancer activity against human MV4-11 cells assessed as cell growth inhibition; type: functional
# [17] = Selectivity index, ratio of GI50 for human MV4-11 cells harboring MLL-AF4 fusion protein to ratio of GI50 for human HL-60 cells; type: functional
# [18] = biological target: Histone-lysine N-methyltransferase EZH2 (Homo sapiens, UniProt Q15910); test: Inhibition of EZH2 (unknown origin)
# Chain of Menin/Histone-lysine N-methyltransferase MLL (O00255 whole entry): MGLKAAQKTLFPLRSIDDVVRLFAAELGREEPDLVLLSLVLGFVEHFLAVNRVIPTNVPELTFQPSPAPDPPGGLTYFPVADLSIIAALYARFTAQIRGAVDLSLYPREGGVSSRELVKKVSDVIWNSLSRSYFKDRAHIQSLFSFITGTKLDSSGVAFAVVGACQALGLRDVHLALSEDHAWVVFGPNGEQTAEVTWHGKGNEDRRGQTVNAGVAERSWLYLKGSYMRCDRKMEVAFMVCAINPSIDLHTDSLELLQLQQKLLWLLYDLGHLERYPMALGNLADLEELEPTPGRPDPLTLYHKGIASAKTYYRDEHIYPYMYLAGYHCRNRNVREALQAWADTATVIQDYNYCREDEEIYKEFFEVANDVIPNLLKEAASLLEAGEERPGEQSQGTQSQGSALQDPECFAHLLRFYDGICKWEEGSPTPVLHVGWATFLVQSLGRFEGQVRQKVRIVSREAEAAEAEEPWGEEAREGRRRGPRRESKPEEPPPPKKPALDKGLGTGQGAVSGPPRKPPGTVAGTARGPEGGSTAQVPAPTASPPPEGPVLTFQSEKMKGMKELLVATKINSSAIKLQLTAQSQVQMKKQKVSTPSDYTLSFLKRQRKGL
# Chain of Menin/Histone-lysine N-methyltransferase MLL (Q03164 1-2718 limits assumed): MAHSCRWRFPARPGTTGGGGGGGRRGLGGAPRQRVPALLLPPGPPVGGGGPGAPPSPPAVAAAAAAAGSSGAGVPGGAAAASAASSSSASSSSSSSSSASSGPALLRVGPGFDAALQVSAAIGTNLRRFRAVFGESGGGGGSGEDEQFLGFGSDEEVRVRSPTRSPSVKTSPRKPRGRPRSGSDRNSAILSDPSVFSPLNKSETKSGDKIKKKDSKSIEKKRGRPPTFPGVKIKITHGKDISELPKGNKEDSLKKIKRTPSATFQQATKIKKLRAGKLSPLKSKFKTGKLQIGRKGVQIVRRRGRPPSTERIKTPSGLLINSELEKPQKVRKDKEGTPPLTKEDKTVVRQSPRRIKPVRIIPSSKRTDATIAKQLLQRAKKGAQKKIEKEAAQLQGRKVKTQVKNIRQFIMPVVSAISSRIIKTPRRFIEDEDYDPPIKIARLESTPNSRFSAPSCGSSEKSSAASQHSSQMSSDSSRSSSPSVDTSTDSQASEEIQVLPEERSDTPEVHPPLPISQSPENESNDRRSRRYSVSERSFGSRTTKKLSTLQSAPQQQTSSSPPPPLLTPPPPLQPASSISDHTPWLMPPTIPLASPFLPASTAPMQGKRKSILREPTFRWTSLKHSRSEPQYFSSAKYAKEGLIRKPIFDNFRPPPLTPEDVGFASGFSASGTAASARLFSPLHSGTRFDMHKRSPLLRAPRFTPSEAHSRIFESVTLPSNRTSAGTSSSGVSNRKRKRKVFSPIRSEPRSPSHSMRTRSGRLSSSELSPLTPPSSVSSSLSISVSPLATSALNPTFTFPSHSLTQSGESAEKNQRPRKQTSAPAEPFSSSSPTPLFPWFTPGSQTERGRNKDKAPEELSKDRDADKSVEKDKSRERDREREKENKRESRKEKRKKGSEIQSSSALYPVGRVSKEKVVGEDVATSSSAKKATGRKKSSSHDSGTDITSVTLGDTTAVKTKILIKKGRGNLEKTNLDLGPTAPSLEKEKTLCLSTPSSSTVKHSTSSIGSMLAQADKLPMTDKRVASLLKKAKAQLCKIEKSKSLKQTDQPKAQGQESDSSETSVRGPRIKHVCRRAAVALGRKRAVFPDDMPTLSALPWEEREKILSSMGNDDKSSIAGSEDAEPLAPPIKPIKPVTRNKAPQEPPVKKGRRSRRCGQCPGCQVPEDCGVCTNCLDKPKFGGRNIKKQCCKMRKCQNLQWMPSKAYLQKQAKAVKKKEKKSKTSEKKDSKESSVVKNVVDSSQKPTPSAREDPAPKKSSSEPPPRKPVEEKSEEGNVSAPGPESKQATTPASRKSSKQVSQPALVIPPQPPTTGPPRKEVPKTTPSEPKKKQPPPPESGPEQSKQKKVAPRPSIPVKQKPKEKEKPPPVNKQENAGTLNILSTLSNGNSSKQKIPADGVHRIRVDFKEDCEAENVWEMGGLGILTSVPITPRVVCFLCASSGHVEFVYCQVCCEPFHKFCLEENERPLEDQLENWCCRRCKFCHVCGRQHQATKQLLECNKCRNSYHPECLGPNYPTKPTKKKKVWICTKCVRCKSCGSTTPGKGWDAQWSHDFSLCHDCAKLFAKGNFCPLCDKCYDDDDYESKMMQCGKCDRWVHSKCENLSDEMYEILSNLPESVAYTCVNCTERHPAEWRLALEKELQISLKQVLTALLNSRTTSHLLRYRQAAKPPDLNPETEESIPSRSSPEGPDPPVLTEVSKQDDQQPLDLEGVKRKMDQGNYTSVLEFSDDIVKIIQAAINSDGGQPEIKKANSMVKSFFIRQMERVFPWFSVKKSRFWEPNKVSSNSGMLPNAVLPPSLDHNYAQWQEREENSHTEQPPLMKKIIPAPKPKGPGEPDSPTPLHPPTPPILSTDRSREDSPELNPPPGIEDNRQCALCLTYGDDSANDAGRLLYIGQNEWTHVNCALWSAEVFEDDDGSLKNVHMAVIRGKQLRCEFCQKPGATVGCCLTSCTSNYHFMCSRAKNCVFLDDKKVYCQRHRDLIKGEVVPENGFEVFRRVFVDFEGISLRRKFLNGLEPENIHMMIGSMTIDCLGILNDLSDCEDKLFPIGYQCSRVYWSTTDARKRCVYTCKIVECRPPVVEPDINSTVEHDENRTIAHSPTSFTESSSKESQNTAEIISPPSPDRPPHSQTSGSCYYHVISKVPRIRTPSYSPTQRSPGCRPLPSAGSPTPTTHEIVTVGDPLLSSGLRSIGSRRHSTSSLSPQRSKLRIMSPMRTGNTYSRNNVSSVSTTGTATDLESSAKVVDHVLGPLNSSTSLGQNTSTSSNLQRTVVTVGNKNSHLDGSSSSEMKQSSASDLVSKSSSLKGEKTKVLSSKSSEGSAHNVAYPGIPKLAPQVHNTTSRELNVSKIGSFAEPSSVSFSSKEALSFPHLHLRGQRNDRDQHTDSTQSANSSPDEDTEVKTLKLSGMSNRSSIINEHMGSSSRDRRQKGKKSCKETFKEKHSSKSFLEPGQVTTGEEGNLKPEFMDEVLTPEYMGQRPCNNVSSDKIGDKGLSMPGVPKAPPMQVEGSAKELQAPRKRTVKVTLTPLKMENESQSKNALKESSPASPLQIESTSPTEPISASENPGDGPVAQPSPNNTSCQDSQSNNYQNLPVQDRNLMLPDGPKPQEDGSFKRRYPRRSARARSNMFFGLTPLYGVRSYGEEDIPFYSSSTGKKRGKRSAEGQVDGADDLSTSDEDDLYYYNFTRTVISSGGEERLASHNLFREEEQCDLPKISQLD
# Chain of Menin/Histone-lysine N-methyltransferase MLL (Q03164 2719-3969 limits assumed): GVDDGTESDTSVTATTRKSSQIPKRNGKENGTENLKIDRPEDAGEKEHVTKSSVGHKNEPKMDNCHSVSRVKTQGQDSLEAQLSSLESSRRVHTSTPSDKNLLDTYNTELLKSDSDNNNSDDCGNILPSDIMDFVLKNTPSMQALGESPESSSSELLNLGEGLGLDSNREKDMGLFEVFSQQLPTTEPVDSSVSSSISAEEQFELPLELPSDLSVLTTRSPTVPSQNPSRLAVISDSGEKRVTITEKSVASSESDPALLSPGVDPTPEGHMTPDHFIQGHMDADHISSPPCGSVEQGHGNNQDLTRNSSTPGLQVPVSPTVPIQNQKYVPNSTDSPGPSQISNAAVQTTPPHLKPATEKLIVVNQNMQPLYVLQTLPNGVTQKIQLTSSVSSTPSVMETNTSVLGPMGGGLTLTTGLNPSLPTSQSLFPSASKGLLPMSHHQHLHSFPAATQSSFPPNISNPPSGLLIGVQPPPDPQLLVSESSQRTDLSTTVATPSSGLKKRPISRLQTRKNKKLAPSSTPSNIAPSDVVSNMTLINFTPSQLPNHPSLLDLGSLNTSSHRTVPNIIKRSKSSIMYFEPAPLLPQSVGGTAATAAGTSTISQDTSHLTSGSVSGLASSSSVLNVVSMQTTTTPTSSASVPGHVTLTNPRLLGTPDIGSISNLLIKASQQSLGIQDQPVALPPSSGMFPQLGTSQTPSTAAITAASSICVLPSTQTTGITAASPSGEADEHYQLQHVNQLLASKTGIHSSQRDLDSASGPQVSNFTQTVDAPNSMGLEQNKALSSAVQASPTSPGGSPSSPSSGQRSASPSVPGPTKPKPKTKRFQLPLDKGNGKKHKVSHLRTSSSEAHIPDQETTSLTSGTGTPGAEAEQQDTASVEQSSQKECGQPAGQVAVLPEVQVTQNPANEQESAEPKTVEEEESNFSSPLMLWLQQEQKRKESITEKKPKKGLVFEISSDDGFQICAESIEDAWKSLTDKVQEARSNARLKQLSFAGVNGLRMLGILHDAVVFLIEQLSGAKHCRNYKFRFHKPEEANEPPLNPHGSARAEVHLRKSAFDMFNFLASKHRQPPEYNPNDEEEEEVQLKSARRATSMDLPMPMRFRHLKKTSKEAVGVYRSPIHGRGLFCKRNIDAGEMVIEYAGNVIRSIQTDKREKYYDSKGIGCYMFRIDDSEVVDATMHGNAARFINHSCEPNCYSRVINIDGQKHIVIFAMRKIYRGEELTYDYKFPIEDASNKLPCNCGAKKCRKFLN
compound,measurement,setting,value
COc1cc2c(NC3CCN(C(C)C)CC3)nc(C3CCCCC3)nc2cc1OCCCN1CCCC1,IC50,[1],81 nM
CC1(C)CN=C(N2CCN(c3ncnc4sc5c(c34)CCCC5)CC2)S1,bioavailability,[2],77%
O=C(CCl)Nc1ccc(S(=O)(=O)c2ccc(NC(=O)CCl)cc2)cc1,GI50,[3],413 nM
same,GI50,[4],597 nM
same,GI50,[5],702 nM
same,GI50,[6],684 nM
COC(=O)N[C@H]1CCC[C@@H]1[C@](C#N)(c1cccc(F)c1)C1CCN(CC2CN(c3ccc(S(=O)(=O)C4CN(C(=O)/C=C/CN(C)C)C4)cc3)C2)CC1,GI50,[7],900 nM
same,GI50,[8],900 nM
same,GI50,[9],900 nM
same,IC50,[10],3 nM
same,GI50,[11],900 nM
same,GI50,[12],2.3 nM
CC1CN1c1cc(O)c2nc(N)sc2c1 (stereo unspecified),GI50,[13],870 nM
same,GI50,[14],1300 nM
C=CC(=O)N1CC(S(=O)(=O)c2ccc(N3CC(CN4CCC([C@@](C#N)(c5cccc(F)c5)[C@H]5CCC[C@@H]5NC(=O)OC)CC4)C3)cc2)C1,GI50,[15],3200 nM
same,GI50,[16],6 nM
same,RatioGI50,[17],>500
COC(=O)N[C@H]1CCC[C@@H]1[C@](C#N)(c1cccc(F)c1)C1CCN(CC2CN(c3ccc(S(=O)(=O)C4CCC4)cc3)C2)CC1,GI50,[16],210 nM
same,IC50,[10],7 nM
C=CC(=O)Nc1cc(-c2ccc(N3CCNCC3)cc2)cc(C(=O)NCc2c(CC)cc(C)[nH]c2=O)c1C,IC50,[18],47 nM
COc1cc2nc(N3CCCN(C)CC3)nc(NC3CCN(Cc4ccccc4)CC3)c2cc1OC,IC50,[1],500 nM
